According to PubChem BioAssay AID330 (DTP/NCI, 2004):
Values joined by “and” are separate entries in the source; they are usually repeats but may differ in a detail not shown here. Identical values can stand only once. Toxic doses and inconclusive results are not listed. The calls were made as follows: active = survival T/C of 150% or more; inactive = T/C below 125% in these data.

System: P388 leukemia ip, CD2F1 mice, survival T/C
Test: NCI In Vivo Anticancer Drug Screen. Data for tumor model P388 Leukemia (intraperitoneal) in CD2F1 (CDF1) mice
Settings: endpoint: median survival time, higher = longer survival
Method in brief: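 Mice carrying the transplanted tumor received test compound or vehicle. Survival was recorded in each group, and the value is the treated-group measurement divided by that of the vehicle-treated control group.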

[1] = dose: 100.0 mg/kg/injection, schedule: Q04DX002 (ip), vehicle: Klucel (hydroxypropylcellulose) (HPC)
[2] = dose: 200.0 mg/kg/injection, schedule: Q04DX002 (ip), vehicle: Klucel (hydroxypropylcellulose) (HPC)
[3] = dose: 6.25 mg/kg/injection, schedule: Q01DX009 (ip), vehicle: saline with Tween-80
[4] = dose: 12.5 mg/kg/injection, schedule: Q01DX009 (ip), vehicle: saline with Tween-80
[5] = dose: 100.0 mg/kg/injection, schedule: Q04DX003 (ip), vehicle: saline with Tween-80
[6] = dose: 200.0 mg/kg/injection, schedule: Q04DX003 (ip), vehicle: saline with Tween-80
[7] = dose: 400.0 mg/kg/injection, schedule: Q04DX003 (ip), vehicle: saline with Tween-80

Measured: T/C

COc1cccc2c1OC(=O)NC2O (configuration not stated)
inactive: dose: 25.0 mg/kg/injection, schedule: Q01DX005 (ip), vehicle: distilled water + Tween-80 103 % of control | dose: 50.0 mg/kg/injection, schedule: Q01DX005 (ip), vehicle: distilled water + Tween-80 107 % of control | dose: 50.0 mg/kg/injection, schedule: Q01DX005 (ip), vehicle: saline with Tween-80 102 % of control | dose: 100.0 mg/kg/injection, schedule: Q01DX005 (ip), vehicle: distilled water + Tween-80 121 % of control | dose: 100.0 mg/kg/injection, schedule: Q01DX005 (ip), vehicle: saline with Tween-80 122 % of control | dose: 200.0 mg/kg/injection, schedule: Q01DX005 (ip), vehicle: distilled water + Tween-80 110 % of control | dose: 200.0 mg/kg/injection, schedule: Q01DX005 (ip), vehicle: saline with Tween-80 112 % of control

CCN1C=C(C(=O)OC)C(N)=C(C#N)/C1=C\C=C(/C#N)C(=O)OC
inactive: [1] 92 % of control | [2] 101 % of control | dose: 400.0 mg/kg/injection, schedule: Q04DX002 (ip), vehicle: Klucel (hydroxypropylcellulose) (HPC) 89 % of control

CC12CC3CC(C)(C1)CC(C/C=N/NC(N)=O)(C3)C2
inactive: dose: 50.0 mg/kg/injection, schedule: Q01DX009 (ip), vehicle: Klucel (hydroxypropylcellulose) (HPC) 102 % of control | dose: 100.0 mg/kg/injection, schedule: Q01DX009 (ip), vehicle: Klucel (hydroxypropylcellulose) (HPC) 92 % of control | dose: 200.0 mg/kg/injection, schedule: Q01DX009 (ip), vehicle: Klucel (hydroxypropylcellulose) (HPC) 99 % of control

CC(=O)[O][Hg][CH]1C2CC3C(C2OC(C)=O)C31 (configuration not stated)
inactive: [3] 105 % of control | [4] 112 % of control

O=N[O-].O=N[O-].[NH2-].[NH2-].[NH2-].[NH2-].[Ni]
inactive: dose: 6.25 mg/kg/injection, schedule: Q01DX009 (ip), vehicle: saline 100 % of control | dose: 12.5 mg/kg/injection, schedule: Q01DX009 (ip), vehicle: saline 105 % of control

OC(c1cc2cc(Cl)c(Cl)cc2c2cc(C(F)(F)F)ccc12)C1CCCCN1 (configuration not stated)
inactive: [3] 109 % of control | [4] 102 % of control

C1=CN2CC(c3ccccc3)=NNC2c2ccccc21 (configuration not stated)
inactive: [1] 107 % of control | [2] 99 % of control

CCn1c2ccccc2c2cc(N=Nc3cc(C(C)C)c(O)cc3C)ccc21
inactive: [5] 93 % of control | [6] 102 % of control | [7] 102 % of control

O=S(=O)(F)c1ccc(Cl)cc1C[P+](c1ccccc1)(c1ccccc1)c1ccccc1
inactive: dose: 25.0 mg/kg/injection, schedule: Q01DX001 (ip), vehicle: Klucel (hydroxypropylcellulose) (HPC) 115 % of control and 120 % of control

O=C1c2ccc(Cl)cc2-n2c1nc1ccccc1c2=O
inactive: dose: 100.0 mg/kg/injection, schedule: Q01DX001 (ip), vehicle: Klucel (hydroxypropylcellulose) (HPC) 100 % of control | dose: 200.0 mg/kg/injection, schedule: Q01DX001 (ip), vehicle: Klucel (hydroxypropylcellulose) (HPC) 93 % of control | dose: 400.0 mg/kg/injection, schedule: Q01DX001 (ip), vehicle: Klucel (hydroxypropylcellulose) (HPC) 93 % of control

NC(CCl)C(=O)O (configuration not stated)
inactive: dose: 50.0 mg/kg/injection, schedule: Q01DX005 (ip), vehicle: saline 100 % of control | dose: 100.0 mg/kg/injection, schedule: Q01DX005 (ip), vehicle: saline 100 % of control | dose: 200.0 mg/kg/injection, schedule: Q01DX005 (ip), vehicle: saline 100 % of control

CCN(CC)CCN1C(=O)NC2(CCCCC2)C1=O
inactive: dose: 60.0 mg/kg/injection, schedule: Q01DX005 (ip), vehicle: saline with Tween-80 101 % of control | dose: 120.0 mg/kg/injection, schedule: Q01DX005 (ip), vehicle: saline with Tween-80 100 % of control | dose: 240.0 mg/kg/injection, schedule: Q01DX005 (ip), vehicle: saline with Tween-80 99 % of control

C=CC(=C)CCC=C(C)C
inactive: dose: 100.0 mg/kg/injection, schedule: Q01DX009 (ip), vehicle: saline with Tween-80 104 % of control | [5] 110 % of control | dose: 200.0 mg/kg/injection, schedule: Q01DX009 (ip), vehicle: saline with Tween-80 113 % of control | [6] 110 % of control | [7] 110 % of control

NS(=O)(=O)c1cc(Br)ccc1Br
inactive: [5] 99 % of control | [6] 117 % of control | [7] 117 % of control
